Experimental data: patent US20040010001A1, “Methods and compositions for modulating cell proliferation and cell death” (priority 1999, published 2004)
Where two headings read alike, the source gives them in different places.

Test system: Human prostate PC3 tumor cells
Experiment: aFGF/bFGF-induced resistance and reversal by suramin, sulforhodamine B assay
Assay type: cell-based
Settings: for Resistance, Folds, aFGF 0.3 ng/ml + bFGF 1 ng/ml / Resistance, Folds, aFGF 1 ng/ml + bFGF 3 ng/ml: no suramin, relative to control
Protocol: The experimental conditions are described briefly below. […] Cell number was measured using the sulforhodamine B assay which measures the total protein concentration. […] The FGF-induced resistance was dependent on the FGF concentrations, with a higher resistance at higher FGF concentrations.

[1] = Homo sapiens, read-out: IC50, Control (drug treatment only, without FGF treatment), No suramin, drug 96 hours
[2] = Homo sapiens, read-out: IC50, aFGF 0.3 ng/ml + bFGF 1 ng/ml, No suramin, FGF pretreatment 96 hours, drug 96 hours
[3] = Homo sapiens, read-out: IC50, aFGF 1 ng/ml + bFGF 3 ng/ml, No suramin, FGF pretreatment 96 hours, drug 96 hours
[4] = read-out: IC50, Control (without FGF treatment), Suramin, 15 μM, drug 96 hours with 15 μM suramin
[5] = read-out: IC50, aFGF 0.3 ng/ml + bFGF 1 ng/ml, With suramin, FGF pretreatment 96 hours, drug 96 hours with 15 micromolar suramin
[6] = read-out: IC50, aFGF 1 ng/ml + bFGF 3 ng/ml, With suramin, FGF pretreatment 96 hours, drug 96 hours with 15 micromolar suramin

| SMILES | IC50 [1] [nM] | IC50 [2] [nM] | IC50 [3] [nM] | Resistance, Folds, aFGF 0.3 ng/ml + bFGF 1 ng/ml [Folds] | Resistance, Folds, aFGF 1 ng/ml + bFGF 3 ng/ml [Folds] | IC50 [4] [nM] | IC50 [5] [nM] | IC50 [6] [nM] | IC50 (read-out: IC50, Control (drug treatment only, without FGF treatment), No suramin, drug 96 hours) [nM] | IC50 (read-out: IC50, aFGF 0.3 ng/ml + bFGF 1 ng/ml, No suramin, FGF pretreatment 96 hours, drug 96 hours) [nM] | IC50 (read-out: IC50, aFGF 1 ng/ml + bFGF 3 ng/ml, No suramin, FGF pretreatment 96 hours, drug 96 hours) [nM] |
| --- | --- | --- | --- | --- | --- | --- | --- | --- | --- | --- | --- |
| CN(Cc1cnc2nc(N)nc(N)c2n1)c1ccc(C(=O)N[C@@H](CCC(=O)O)C(=O)O)cc1 [Methotrexate] | 32100 | 60600 | 80600 | 1.89 | 2.51 | 28800 | 30600 | 33700 | – | – | – |
| Nc1nc2nc[nH]c2c(=S)[nH]1 [6-Thioguanine] | 280 | 960 | 1440 | 3.43 | 5.14 | 320 | 320 | 300 | – | – | – |
| O=NN(CCCl)C(=O)NCCCl [BCNU] | 33500 | 52200 | 75600 | 1.56 | 2.26 | 34200 | 36500 | 33300 | – | – | – |
| CC[C@@]1(O)C(=O)OCc2c1cc1n(c2=O)Cc2cc3c(CN(C)C)c(O)ccc3nc2-1 [Topotecan] | 22.2 | 31.1 | 53.9 | 1.40 | 2.43 | 21.7 | 20.8 | 21 | – | – | – |
| COc1cc([C@@H]2c3cc4c(cc3[C@@H](O[C@@H]3O[C@@H]5CO[C@@H](c6cccs6)O[C@H]5[C@H](O)[C@H]3O)[C@H]3COC(=O)[C@H]23)OCO4)cc(OC)c1O [Teniposide] | 400 | 1140 | 1980 | 2.85 | 4.95 | 420 | 390 | 360 | – | – | – |
| CC[C@]1(O)C[C@@H]2CN(CCc3c([nH]c4ccccc34)[C@@](C(=O)OC)(c3cc4c(cc3OC)N(C)[C@H]3[C@@](O)(C(N)=O)[C@H](O)[C@]5(CC)C=CCN6CC[C@]43[C@@H]65)C2)C1 [Vindesine] | 0.39 | 0.53 | 0.82 | – | – | 0.35 | 0.37 | 0.43 | – | – | – |
| O=C(CCBr)N1CCN(C(=O)CCBr)CC1 [Pipobroman] | 136000 | 194000 | 184000 | 1.42 | 1.35 | 94000 | 125000 | 109000 | – | – | – |
| COc1cc([C@@H]2c3cc4c(cc3[C@@H](O[C@@H]3O[C@@H]5CO[C@@H](C)O[C@H]5[C@H](O)[C@H]3O)[C@H]3COC(=O)[C@H]23)OCO4)cc(OC)c1O [Etoposide] | 1840 | 2340 | 3400 | 1.27 | 1.85 | 1750 | 1600 | 1610 | – | – | – |
| CCC1=C[C@@H]2CN(C1)Cc1c([nH]c3ccccc13)[C@@](C(=O)OC)(c1cc3c(cc1OC)N(C)[C@H]1[C@@](O)(C(=O)OC)[C@H](OC(C)=O)[C@]4(CC)C=CCN5CC[C@]31[C@@H]54)C2 [Vinorelbin] | – | – | – | 1.32 | 2.26 | 3.29 | 3.6 | 3.84 | 3.99 | 5.25 | 9.01 |
| CC(=O)[C@]1(O)Cc2c(O)c3c(c(O)c2[C@@H](O[C@H]2C[C@H](N)[C@H](O)[C@H](C)O2)C1)C(=O)c1ccccc1C3=O [Idarubicin] | 4.45 | 11.9 | 31.2 | 2.67 | 7.01 | 5.05 | – | 4.3 | – | – | – |
